Data set [1] in a line: Inhibition of PKA.
Data set [2] concerns the target T1, RAC-alpha serine/threonine-protein kinase (Homo sapiens, UniProt P31749). The data set is described as follows: Inhibition of Akt in human LNCaP cell assessed as inhibition of PRAS40 phosphorylation. It is filed as cell-based.
Data set [3] concerns the target T1, RAC-alpha serine/threonine-protein kinase. The data set is described as follows: Inhibition of Akt1.
The target of data set [4] is Ribosomal protein S6 kinase beta-1 (Homo sapiens) (UniProt P23443). The data set is described as follows: Inhibition of p70S6K at 1 uM.
Sequence of Ribosomal protein S6 kinase beta-1 (Homo sapiens) (P23443 whole entry, looked up): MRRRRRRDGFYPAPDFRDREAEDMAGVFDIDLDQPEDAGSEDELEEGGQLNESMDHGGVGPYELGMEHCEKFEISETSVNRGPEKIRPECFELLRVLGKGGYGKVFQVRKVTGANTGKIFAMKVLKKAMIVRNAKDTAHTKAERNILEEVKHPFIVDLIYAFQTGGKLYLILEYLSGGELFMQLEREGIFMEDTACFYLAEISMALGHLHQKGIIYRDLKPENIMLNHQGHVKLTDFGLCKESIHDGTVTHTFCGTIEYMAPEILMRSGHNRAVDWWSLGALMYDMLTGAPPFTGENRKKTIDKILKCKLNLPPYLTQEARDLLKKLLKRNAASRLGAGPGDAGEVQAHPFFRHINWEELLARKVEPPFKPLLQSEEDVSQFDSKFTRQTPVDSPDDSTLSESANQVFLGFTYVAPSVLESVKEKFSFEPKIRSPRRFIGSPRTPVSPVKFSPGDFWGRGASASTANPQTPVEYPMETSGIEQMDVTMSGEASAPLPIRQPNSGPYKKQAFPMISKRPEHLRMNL
Data set [5] can be described thus: Inhibition of PKA at 1 uM.
The target in data set [6] is Protein kinase C eta type (Homo sapiens) (UniProt P24723). The data set is described as follows: Inhibition of PKCeta at 1 uM.
Sequence of Protein kinase C eta type (Homo sapiens) (P24723 whole entry): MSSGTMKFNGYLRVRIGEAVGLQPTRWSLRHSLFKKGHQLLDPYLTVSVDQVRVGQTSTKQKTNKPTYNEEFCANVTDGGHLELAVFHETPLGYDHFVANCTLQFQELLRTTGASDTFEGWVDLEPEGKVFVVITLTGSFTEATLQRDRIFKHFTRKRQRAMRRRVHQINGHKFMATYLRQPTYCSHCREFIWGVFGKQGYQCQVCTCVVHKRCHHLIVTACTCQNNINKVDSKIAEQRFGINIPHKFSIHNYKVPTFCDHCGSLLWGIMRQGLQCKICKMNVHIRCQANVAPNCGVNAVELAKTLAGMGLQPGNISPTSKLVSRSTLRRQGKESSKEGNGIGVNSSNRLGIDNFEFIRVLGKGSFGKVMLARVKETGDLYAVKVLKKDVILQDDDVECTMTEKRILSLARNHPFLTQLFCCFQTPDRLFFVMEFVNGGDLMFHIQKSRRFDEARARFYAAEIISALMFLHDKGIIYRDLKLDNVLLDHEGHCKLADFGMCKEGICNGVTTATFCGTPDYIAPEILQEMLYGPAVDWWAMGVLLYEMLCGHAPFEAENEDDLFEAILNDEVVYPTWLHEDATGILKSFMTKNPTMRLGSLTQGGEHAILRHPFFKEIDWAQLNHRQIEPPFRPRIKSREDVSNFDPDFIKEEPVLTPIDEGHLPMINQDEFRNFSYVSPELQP
A short description of data set [7]: Ratio of IC50 for Akt1 to IC50 for Akt3.
The nature of data set [8]: Ratio of IC50 for Akt1 to IC50 for Akt2.
The nature of data set [9]: Bioavailability in rat at 50 mg/kg, po. The data set is classed as ADME, organism-based. The settings on record: in vivo.
The subject of data set [10] is PC-3. The data set is described as follows: Antitumor activity against human PC3 prostate tumor cell xenografted in nude mouse assessed as inhibition of tumor growth at 100 mg/kg, po qd for 14 days. The data set is classed as functional. Conditions: PC-3, 336 h; call rule not given here. Background: Xenograft models place foreign cells or tissue in a host animal.
The nature of data set [11]: Inhibition of PRAS40 phosphorylation in human U87 cells xenografted in mouse at 50 mg/kg, po after 1 hr. It is filed as functional, U-87MG ATCC. The settings on record: U-87 MG.
For data set [12], the system named is PC-3. The data set is described as follows: Antitumor activity against human PC3 prostate tumor cell xenografted in nude mouse assessed as inhibition of tumor growth at 200 mg/kg, po qd for 14 days. More on the design: scale not given: the % may be the effect or the level left. It is filed as functional.
Data set [13] in a line: Plasma protein binding in rat. It is filed as ADME, cell-free. The settings on record: read-out: PPB (converted).
Data set [14] concerns Plasma. The data set is described as follows: Increase in plasma drug level in nude mouse xenografted with human U87 cells at 50 to 100 mg/kg, po after 1 hr. It is filed as ADME, organism-based, U-87MG ATCC. More on the design: dose 50-100 mg/kg, route oral. The settings on record: in vivo.
Data set [15] can be described thus: Clearance in rat at 5 mg/kg, iv. The data set is classed as ADME, organism-based. On the set-up: dose 5 mg/kg, route intravenous. Conditions: in vivo.
Data set [16] in a line: Inhibition of PRAS40 phosphorylation in human U87 cells xenografted in mouse at 200 mg/kg, po after 4 hrs. The settings on record: U-87 MG. It is filed as functional, U-87MG ATCC.
Data set [17] deals with PC-3. The data set is described as follows: Antitumor activity against human PC3 prostate tumor cell xenografted in nude mouse assessed as inhibition of tumor growth at 25 mg/kg, po qd for 14 days. The data set is classed as functional. More on the design: scale not given: the % may be the effect or the level left.
A short description of data set [18]: Inhibition of PRAS40 phosphorylation in human U87 cells xenografted in mouse at 200 mg/kg, po after 12 hrs. It is filed as functional, U-87MG ATCC. Conditions: U-87 MG.
Data set [19] relates to Plasma. The data set is described as follows: Increase in plasma drug level in nude mouse xenografted with human U87 cells at 50 to 100 mg/kg, po after 4 hrs. It is filed as ADME, organism-based, U-87MG ATCC. On the set-up: dose 50-100 mg/kg, route oral. The settings on record: in vivo.
Data set [20] has as its system Plasma. The data set is described as follows: Increase in plasma drug level in nude mouse xenografted with human U87 cells at 200 mg/kg, po after 1 hr. The data set is classed as ADME, organism-based, U-87MG ATCC. On the set-up: dose 200 mg/kg, route oral. Conditions: in vivo.
Data set [21] concerns PC-3. The data set is described as follows: Antitumor activity against human PC3 prostate tumor cell xenografted in nude mouse assessed as inhibition of tumor growth at 50 mg/kg, po qd for 14 days. It is filed as functional. On the set-up: scale not given: the % may be the effect or the level left.
Data set [22] relates to Plasma. The data set is described as follows: Increase in plasma drug level in nude mouse xenografted with human U87 cells at 200 mg/kg, po after 4 hrs. It is filed as ADME, organism-based, U-87MG ATCC. On the set-up: dose 200 mg/kg, route oral. Conditions: in vivo.
Data set [23] can be described thus: Inhibition of PRAS40 phosphorylation in human U87 cells xenografted in mouse at 50 mg/kg, po after 4 hr. The data set is classed as functional, U-87MG ATCC. Conditions: U-87 MG.
Data set [24] can be described thus: Plasma concentration in rat at 50 mg/kg, po. It is filed as ADME, organism-based. More on the design: dose 50 mg/kg, route oral.

T1 sequence (P31749 whole entry): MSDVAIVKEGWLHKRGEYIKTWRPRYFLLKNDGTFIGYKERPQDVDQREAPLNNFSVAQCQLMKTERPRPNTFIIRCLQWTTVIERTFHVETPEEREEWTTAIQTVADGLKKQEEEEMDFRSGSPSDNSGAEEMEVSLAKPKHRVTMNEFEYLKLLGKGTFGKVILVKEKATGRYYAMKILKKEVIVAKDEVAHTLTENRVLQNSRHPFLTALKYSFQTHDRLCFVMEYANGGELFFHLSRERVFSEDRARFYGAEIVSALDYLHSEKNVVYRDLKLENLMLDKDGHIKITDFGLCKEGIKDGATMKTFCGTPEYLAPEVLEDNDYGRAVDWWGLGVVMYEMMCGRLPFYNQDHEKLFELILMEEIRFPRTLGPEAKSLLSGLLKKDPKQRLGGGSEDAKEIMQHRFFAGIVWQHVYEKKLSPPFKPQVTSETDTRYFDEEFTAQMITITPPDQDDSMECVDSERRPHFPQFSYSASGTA

As to `C[C@H]1SCc2ncnc(N3CCN(C(=O)[C@H](N)Cc4ccc(Cl)cc4)CC3)c21`, the figures for the IC50 in data set [1], in data set [2] and in data set [3] were 1710 nM, 18500 nM and 260 nM, respectively.

For `CC(C)NCC(Cc1ccc(Cl)c(F)c1)C(=O)N1CCN(c2ncnc3c2[C@H](C)OC3)CC1` (stereo partly specified), the values for the IC50 in data set [1], in data set [2] and in data set [3] were 88 nM, 315 nM and 6 nM, respectively.

On to `C[C@@H]1SCc2ncnc(N3CCN(C(=O)C(Cc4ccc(Cl)cc4)CC(C)(C)N)CC3)c21` (stereo partly specified), for which the IC50 – broadly, the point on the concentration scale where inhibition reaches its midpoint – in data set [1] worked out at 73 nM; in data set [2] it was 438 nM; in data set [3] it was 6 nM.

For `C[C@@H]1OCc2ncnc(N3CCN(C(=O)C(Cc4ccc(Cl)c(F)c4)CC(C)(C)N)CC3)c21` (stereo partly specified), the half-maximal inhibitory concentration (IC50) in data set [1] was 91 nM; in data set [2] it was 592 nM; in data set [3], 18 nM.

On to `C[C@@H]1SCc2ncnc(N3CCN(C(=O)C(Cc4ccc(Cl)c(F)c4)CC(C)(C)N)CC3)c21` (stereo partly specified), for which the results for the IC50 in data set [1], in data set [2] and in [3] were 63 nM, 587 nM and 7 nM, respectively.

On to `C[C@@H]1OCc2ncnc(N3CCN(C(=O)[C@H](N)Cc4ccc(Cl)cc4)CC3)c21`, for which the IC50 is 61 nM in data set [1], 615 nM in data set [2] and 7 nM in data set [3].

Turning to `CC(C)NC[C@H](Cc1ccc(Cl)cc1)C(=O)N1CCN(c2ncnc3c2[C@H](C)OC3)CC1`, the concentration for half-maximal inhibition (IC50) in [1] turned out to be 52 nM; in data set [2], 125 nM; in [3], 3 nM. Also, the inhibition in data set [4], in data set [5] and in [6] was above 50% throughout.

With `C[C@@H]1SCc2ncnc(N3CCN(C(=O)[C@H](N)Cc4ccc(Cl)c(F)c4)CC3)c21`, the IC50 in data set [1] is 8 nM; in [2], 176 nM; in data set [3], 2 nM.

As to `N[C@H](Cc1ccc(Cl)cc1)C(=O)N1CCN(c2ncnc3c2CS(=O)(=O)C3)CC1`, the IC50 in data set [1] was 1300 nM; in [2], 21000 nM; in data set [3] it was 52 nM.

On to `CC(C)NCC(Cc1ccc(Cl)cc1)C(=O)N1CCN(c2ncnc3c2[C@H](C)SC3)CC1` (stereo partly specified), for which the IC50 in [1] worked out at 80 nM; in data set [2], 159 nM; in data set [3], 3 nM. The inhibition in [4], in data set [5] and in data set [6] was above 50% each time.

Turning to `CC(C)NCC(Cc1ccc(F)c(F)c1)C(=O)N1CCN(c2ncnc3c2[C@H](C)SC3)CC1` (stereo partly specified), the half-inhibitory concentration (IC50) in [1] was found to be 285 nM; in data set [2], 759 nM; in data set [3], 10 nM.

For the compound `Cc1ccc(CC(CNC(C)C)C(=O)N2CCN(c3ncnc4c3[C@H](C)OC4)CC2)cc1` (stereo partly specified), the IC50 in [1] was 315 nM; in data set [2], 995 nM; in [3], 16 nM.

Consider `Cc1c[nH]c2ncnc(N3CCN(C(=O)[C@H](N)Cc4ccc(F)cc4)CC3)c12`, for which the values for the IC50 in data set [1] and in data set [2] were 6 nM and 160 nM, respectively.

For the compound `CC1SCc2ncnc(N3CCN(C(=O)[C@H](N)Cc4ccc(Cl)cc4)CC3)c21` (stereo partly specified), the IC50 in data set [1] was found to be 31 nM; in data set [2], 310 nM; in [3], 4 nM.

As to `CC(C)NCC(C(=O)N1CCN(c2ncnc3c2C(C)OC3)CC1)c1ccc(Cl)cc1` (stereo unspecified), in [7], the Ratio IC50 worked out at 3.

In the case of `CC(C)NCC(Cc1ccc(Cl)c(F)c1)C(=O)N1CCN(c2ncnc3c2[C@H](C)SC3)CC1` (stereo partly specified), the results for the IC50 in [1], in [2] and in [3] were 30 nM, 92 nM and 2 nM, respectively.

`C[C@@H]1SCc2ncnc(N3CCN(C(=O)[C@H](N)Cc4ccc(F)c(F)c4)CC3)c21`: the figures for the IC50 in data set [1], in data set [2] and in data set [3] were 30 nM, 602 nM and 4 nM, respectively.

As to `C[C@@H]1SCc2ncnc(N3CCN(C(=O)C(Cc4ccc(Cl)c(F)c4)CC4(N)CC4)CC3)c21` (stereo partly specified), the IC50 in [1] came to 30 nM; in data set [2], 250 nM; in data set [3], 3 nM.

As to `C[C@@H]1SCc2ncnc(N3CCN(C(=O)[C@H](N)Cc4ccc(F)cc4)CC3)c21`, the results for the IC50 in [1], in data set [2] and in data set [3] were 104 nM, 1590 nM and 11 nM, respectively.

As to `CC(C)NCC(C(=O)N1CCN(c2ncnc3c2C(C)SC3)CC1)c1ccc(Cl)cc1` (stereo unspecified), the Ratio IC50 in [8] was found to be 5.

In the case of `N[C@H](Cc1ccc(Cl)cc1)C(=O)N1CCN(c2ncnc3c2CSC3)CC1`, the IC50 in [1] is 223 nM; in [2], 3850 nM; in [3], 22 nM.

For the compound `CC(C)NC[C@@H](Cc1ccc(Cl)cc1)C(=O)N1CCN(c2ncnc3c2[C@H](C)SC3)CC1`, the results for the IC50 in [1] and in data set [3] were 5620 nM and 127 nM, respectively.

For the compound `CCC1SCc2ncnc(N3CCN(C(=O)[C@H](N)Cc4ccc(Cl)cc4)CC3)c21` (stereo partly specified), the IC50 worked out at 52 nM in [1], 1200 nM in data set [2] and 7 nM in data set [3].

Turning to `Cc1ccc(CC(CNC(C)C)C(=O)N2CCN(c3ncnc4c3[C@H](C)SC4)CC2)cc1` (stereo partly specified), the IC50 in data set [1] turned out to be 101 nM; in [2] it was 216 nM; in [3], 3 nM.

For `C[C@@H]1SCc2ncnc(N3CCN(C(=O)C(Cc4ccc(Cl)cc4)C4(N)CC4)CC3)c21` (stereo partly specified), the half-maximal inhibitory concentration (IC50) worked out at 308 nM in data set [1], 2470 nM in data set [2] and 42 nM in data set [3].

For the compound `C[C@@H]1SCc2ncnc(N3CCN(C(=O)[C@H](N)Cc4ccc(Cl)cc4)CC3)c21`, the IC50 stood at 13 nM in data set [1], 184 nM in [2] and 1 nM in data set [3].

Regarding `C[C@@H]1SCc2ncnc(N3CCN(C(=O)C(Cc4ccc(Cl)cc4)CN4CCCC4)CC3)c21` (stereo partly specified), the IC50 in data set [1] stood at 75 nM; in data set [2], 178 nM; in data set [3] it was 3 nM.

As for `C[C@@H]1SCc2ncnc(N3CCN(C(=O)[C@H](N)Cc4c[nH]c5ccccc45)CC3)c21`, the IC50 in data set [2] is 3630 nM.

As to `CC(C)NC[C@H](Cc1ccc(Cl)cc1)C(=O)N1CCN(c2ncnc3c2[C@H](C)SC3)CC1`, in [9], the bioavailability (as a rule, dose-corrected exposure relative to a reference, in per cent) was above 100%. For the same compound, in the data set with PC-3 [10], the inhibition in vivo (commonly the relative decrease from the control value, in per cent) at 100 mg/kg came to 61%. Besides, the inhibition in vivo at 50 mg/kg in data set [11] was 85%; in data set [23], 60%. The IC50 came to 35 nM in data set [1], 137 nM in [2] and 1 nM in [3]. Further, the Activity is 84% in the data set on PC-3 [12]; “Active” in the data set on Plasma [14]; 15% in the data set with PC-3 [17]; “Active” in the data set with Plasma [19]; “Active” with Plasma [20]; 42% in the data set on PC-3 [21]. In the data set with Plasma [22], the result was Active. The fraction unbound in data set [13] was 0.3. In addition, the clearance (as a rule, the rate of elimination divided by the concentration) in data set [15] is 94 mL/min/kg. In addition, the figures for the inhibition in vivo at 200 mg/kg in data set [16] and in data set [18] were 83% and 65%, respectively. In data set [24], the area under the curve (AUC) – broadly, concentration integrated over time – turned out to be 56200 ng·h/mL.
